Experimental data: ChEMBL document CHEMBL4622854, “Synthetic bioactive olivetol-related amides: The influence of the phenolic group in cannabinoid receptor activity” (Bioorg Med Chem, 2020)
Activity calls are given as the source filed them. The calls are words filed in the database; no cut-off is given here.

Experiments:
[1] = system: HepG2; experiment: Antiproliferation activity against human HepG2 cells assessed as reduction in cell viability at 1 uM incubated for 24 to 72 hrs by MTT assay; assay type: functional, cell-based
[2] = target: T1, Transient receptor potential cation channel subfamily A member 1 (Rattus norvegicus, UniProt Q6RI86); experiment: Antagonist activity at rat recombinant TRPA1 expressed in HEK293 cells assessed as AITC-induced increase of calcium influx preincubated for 5 mins by Fluo-4AM dye based fluorescence assay; assay type: cell-based
T1 sequence (Q6RI86 whole entry): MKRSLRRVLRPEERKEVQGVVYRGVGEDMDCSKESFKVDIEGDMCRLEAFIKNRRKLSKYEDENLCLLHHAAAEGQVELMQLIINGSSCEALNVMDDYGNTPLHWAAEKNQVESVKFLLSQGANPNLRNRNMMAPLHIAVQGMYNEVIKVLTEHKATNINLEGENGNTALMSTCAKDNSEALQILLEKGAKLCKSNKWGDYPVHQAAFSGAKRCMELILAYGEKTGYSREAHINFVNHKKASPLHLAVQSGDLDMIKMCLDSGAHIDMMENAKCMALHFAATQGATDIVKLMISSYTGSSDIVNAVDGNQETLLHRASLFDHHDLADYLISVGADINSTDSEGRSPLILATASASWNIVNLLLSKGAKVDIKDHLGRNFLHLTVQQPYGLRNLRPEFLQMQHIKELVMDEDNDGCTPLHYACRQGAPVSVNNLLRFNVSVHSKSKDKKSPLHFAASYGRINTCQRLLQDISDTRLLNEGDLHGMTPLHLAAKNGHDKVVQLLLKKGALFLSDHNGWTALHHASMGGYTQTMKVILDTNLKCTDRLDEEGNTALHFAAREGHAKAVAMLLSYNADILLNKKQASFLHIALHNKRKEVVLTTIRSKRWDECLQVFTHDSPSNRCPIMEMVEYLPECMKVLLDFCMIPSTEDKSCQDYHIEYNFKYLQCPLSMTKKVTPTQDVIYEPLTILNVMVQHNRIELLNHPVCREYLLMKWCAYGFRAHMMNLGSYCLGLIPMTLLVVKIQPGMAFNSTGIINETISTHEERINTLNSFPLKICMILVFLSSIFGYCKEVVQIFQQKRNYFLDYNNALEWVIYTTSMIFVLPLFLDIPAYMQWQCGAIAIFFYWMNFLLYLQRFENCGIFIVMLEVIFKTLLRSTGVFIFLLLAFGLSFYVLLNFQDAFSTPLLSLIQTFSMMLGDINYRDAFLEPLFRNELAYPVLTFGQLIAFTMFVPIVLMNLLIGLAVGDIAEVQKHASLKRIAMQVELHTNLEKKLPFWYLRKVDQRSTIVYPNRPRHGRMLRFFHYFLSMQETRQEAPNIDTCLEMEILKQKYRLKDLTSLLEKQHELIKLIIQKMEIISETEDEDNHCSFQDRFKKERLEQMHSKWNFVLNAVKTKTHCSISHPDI

[3] = target: T2, Cannabinoid receptor 1 (Homo sapiens, UniProt P21554); experiment: Displacement of [3H]-CP55940 from human recombinant CB1 receptor expressed in HEK cell membrane; assay type: cell membranes
T2 sequence (P21554 whole entry): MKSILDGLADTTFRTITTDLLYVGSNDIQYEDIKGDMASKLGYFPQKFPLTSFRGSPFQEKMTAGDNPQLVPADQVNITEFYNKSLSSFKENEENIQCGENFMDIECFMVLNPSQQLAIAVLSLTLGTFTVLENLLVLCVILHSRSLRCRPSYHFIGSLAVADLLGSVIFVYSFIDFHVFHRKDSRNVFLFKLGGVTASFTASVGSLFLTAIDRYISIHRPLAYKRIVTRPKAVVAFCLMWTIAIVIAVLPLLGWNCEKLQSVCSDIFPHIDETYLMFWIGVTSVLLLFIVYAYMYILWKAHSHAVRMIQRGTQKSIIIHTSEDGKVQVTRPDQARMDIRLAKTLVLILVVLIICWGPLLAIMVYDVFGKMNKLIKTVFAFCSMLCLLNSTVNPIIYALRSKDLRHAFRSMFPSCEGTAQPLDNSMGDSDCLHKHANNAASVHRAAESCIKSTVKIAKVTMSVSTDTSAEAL

[4] = target: T3, Cannabinoid receptor 2 (Homo sapiens, UniProt P34972); experiment: Displacement of [3H]-CP55940 from human recombinant CB2 receptor expressed in HEK cell membrane; assay type: cell membranes
T3 sequence (P34972 whole entry): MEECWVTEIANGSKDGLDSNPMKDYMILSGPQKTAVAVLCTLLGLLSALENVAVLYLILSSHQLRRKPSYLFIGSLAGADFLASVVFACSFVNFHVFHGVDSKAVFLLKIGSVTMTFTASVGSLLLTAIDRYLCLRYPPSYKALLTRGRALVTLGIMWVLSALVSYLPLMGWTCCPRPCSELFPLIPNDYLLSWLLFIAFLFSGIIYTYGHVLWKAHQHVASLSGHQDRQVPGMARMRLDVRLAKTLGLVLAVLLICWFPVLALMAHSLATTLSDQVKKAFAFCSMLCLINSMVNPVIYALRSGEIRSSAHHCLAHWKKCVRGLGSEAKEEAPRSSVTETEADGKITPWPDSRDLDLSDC

[5] = organism: Homo sapiens; experiment: Selectivity ratio of Ki for displacement of [3H]-CP55940 from human recombinant CB1 receptor expressed in HEK293 cell membrane to Ki for displacement of [3H]-CP55940 from human recombinant CB2 receptor expressed in HEK293 cell membrane
[6] = target: T2, Cannabinoid receptor 1; experiment: Agonist activity at human CB1 receptor expressed in CHO cell membrane assessed as stimulation of [35S]-GTPgammaS binding incubated for 1 hr by liquid scintillation counting assay; assay type: functional, cell membranes
[7] = target: T2, Cannabinoid receptor 1; experiment: Agonist activity at human CB1 receptor expressed in CHO cell membrane assessed as stimulation of [35S]-GTPgammaS binding incubated for 1 hr by liquid scintillation counting assay relative to control
[8] = target: T3, Cannabinoid receptor 2; experiment: Agonist activity at human CB2 receptor expressed in CHO cell membrane assessed as inhibition of [35S]-GTPgammaS binding incubated for 1 hr by liquid scintillation counting assay; assay type: functional, cell membranes
[9] = system: Mus musculus; experiment: Antinociceptive activity in formalin-induced nociception pain CD-1 mouse model assessed as reduction in pain related behavior in late phase through ip pretreated with compound 10 mins prior to formalin induction measured after 20 to 60 mins by formalin test; assay type: functional, organism-based
[10] = system: Mus musculus; experiment: Antinociceptive activity in formalin-induced nociception pain CD-1 mouse model assessed as reduction in pain related behavior in first phase at 4 mg/kg, ip pretreated with compound 10 mins prior to formalin induction measured from 0 to 10 mins by formalin test; assay type: functional, organism-based
[11] = target: T4, Transient receptor potential cation channel subfamily V member 1 (Homo sapiens, UniProt Q8NER1); experiment: Antagonist activity at human TRPV1 expressed in HEK293 cells assessed as capsaicin-induced increase of calcium influx preincubated for 5 mins by Fluo-4AM dye based fluorescence assay; assay type: cell-based
T4 sequence (Q8NER1 whole entry): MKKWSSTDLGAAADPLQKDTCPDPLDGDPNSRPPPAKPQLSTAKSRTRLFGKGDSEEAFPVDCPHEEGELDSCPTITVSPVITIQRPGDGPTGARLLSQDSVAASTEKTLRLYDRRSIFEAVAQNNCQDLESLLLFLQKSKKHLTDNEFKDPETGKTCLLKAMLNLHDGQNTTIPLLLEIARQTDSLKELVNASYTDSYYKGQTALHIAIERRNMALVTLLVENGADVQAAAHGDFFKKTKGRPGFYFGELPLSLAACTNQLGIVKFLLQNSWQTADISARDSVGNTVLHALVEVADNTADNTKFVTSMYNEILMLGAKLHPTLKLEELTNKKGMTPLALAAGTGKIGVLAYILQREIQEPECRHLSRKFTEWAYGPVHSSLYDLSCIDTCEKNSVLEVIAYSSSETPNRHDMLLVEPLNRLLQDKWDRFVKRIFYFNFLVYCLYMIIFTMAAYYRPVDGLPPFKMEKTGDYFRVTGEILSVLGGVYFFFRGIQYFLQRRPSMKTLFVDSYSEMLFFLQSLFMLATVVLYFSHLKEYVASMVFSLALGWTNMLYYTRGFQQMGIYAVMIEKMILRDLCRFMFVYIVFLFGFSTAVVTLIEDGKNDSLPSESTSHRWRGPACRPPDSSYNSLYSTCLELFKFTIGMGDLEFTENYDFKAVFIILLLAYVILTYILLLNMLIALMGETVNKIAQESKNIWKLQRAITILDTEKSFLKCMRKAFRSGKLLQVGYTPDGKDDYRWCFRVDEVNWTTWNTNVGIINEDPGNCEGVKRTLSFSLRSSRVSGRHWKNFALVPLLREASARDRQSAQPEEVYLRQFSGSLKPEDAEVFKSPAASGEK

[12] = target: T4, Transient receptor potential cation channel subfamily V member 1; experiment: Antagonist activity at human TRPV1 expressed in HEK293 cells assessed as ionomycin-induced increase of calcium influx at 4 uM preincubated for 5 mins by Fluo-4AM dye based fluorescence assay relative to control; assay type: cell-based
[13] = target: Transient receptor potential cation channel subfamily A member 1 (Rattus norvegicus) (UniProt Q6RI86); experiment: Antagonist activity at rat recombinant TRPA1 expressed in HEK293 cells assessed as AITC-induced increase of calcium influx at 100 uM preincubated for 5 mins by Fluo-4AM dye based fluorescence assay relative to control; assay type: cell-based
Transient receptor potential cation channel subfamily A member 1 (Rattus norvegicus), sequence (Q6RI86 whole entry): as the sequence (Q6RI86 whole entry) above

[14] = target: T3, Cannabinoid receptor 2; experiment: Agonist activity at human CB2 receptor expressed in CHO cell membrane assessed as stimulation of [35S]-GTPgammaS binding incubated for 1 hr by liquid scintillation counting assay relative to control
[15] = organism: Mus musculus; experiment: Antinociceptive activity in formalin-induced nociception pain CD-1 mouse model assessed as reduction in pain related behavior pretreated with compound 10 mins prior to formalin induction co-treated with AM251 measured until 60 mins by formalin test; assay type: functional, organism-based
[16] = organism: Mus musculus; experiment: Antinociceptive activity in formalin-induced nociception pain CD-1 mouse model assessed as reduction in pain related behavior pretreated with compound 10 mins prior to formalin induction co-treated with AM630 measured until 60 mins by formalin test; assay type: functional, organism-based
[17] = target: T1, Transient receptor potential cation channel subfamily A member 1; experiment: Activation of rat recombinant TRPA1 expressed in HEK293 cells assessed as calcium influx preincubated for 5 mins by Fluo-4AM dye based fluorescence assay; assay type: cell-based
[18] = target: T4, Transient receptor potential cation channel subfamily V member 1; experiment: Activation of human TRPV1 expressed in HEK293 cells assessed as calcium influx preincubated for 5 mins by Fluo-4AM dye based fluorescence assay; assay type: cell-based
[19] = target: T3, Cannabinoid receptor 2; experiment: Agonist activity at human CB2 receptor at 1 nM to 1 uM expressed in CHO cell membrane assessed as stimulation of [35S]-GTPgammaS binding incubated for 1 hr by liquid scintillation counting assay
[20] = target: T3, Cannabinoid receptor 2; experiment: Antagonist activity at human CB2 receptor expressed in CHO cell membrane assessed as inhibition of CP55940-induced [35S]-GTPgammaS binding incubated for 1 hr by liquid scintillation counting
[21] = target: T3, Cannabinoid receptor 2; experiment: Agonist activity at human CB2 receptor at 10 uM expressed in CHO cell membrane assessed as stimulation of [35S]-GTPgammaS binding incubated for 1 hr by liquid scintillation counting assay relative to control
[22] = system: Mus musculus; experiment: Antinociceptive activity in formalin-induced nociception pain CD-1 mouse model assessed as reduction in pain related behavior in late phase at 6 mg/kg, ip pretreated with compound 10 mins prior to formalin induction measured after 20 to 60 mins by formalin test; assay type: functional, organism-based
[23] = system: Mus musculus; experiment: Antinociceptive activity in formalin-induced nociception pain CD-1 mouse model assessed as reduction in pain related behavior in late phase at 1 to 3 mg/kg, ip pretreated with compound 10 mins prior to formalin induction measured after 20 to 60 mins by formalin test; assay type: functional, organism-based

Compound: CCCCCCC(C)(C)c1cc(OC)cc(OCCCCCCCC(=O)NC2CC2)c1
- Activity [1]: inactive
- IC50 [2]: > 100000 nM
- Ki [3]: 1.1 nM
- Ki [4]: 4.2 nM
- Selectivity ratio [5]: 0.3
- EC50 [6]: 15.1 nM
- Emax [7]: 52.5%
- EC50 [8]: 1.16 nM
- Activity [9]: Dose-dependent effect
- Activity [10]: Active
- IC50 [11]: 800 nM
- Efficacy [12]: 29.4%
- Efficacy [13]: 17.2%
- Emax [14]: 28.3%
- Activity [15]: inactive
- Activity [16]: Active
- EC50 [17]: 11100 nM
- EC50 [18]: 120 nM

Compound: CCCCCc1cc(OCCCC)cc(OCCCCCCCCCCC(=O)NC2CC2)c1
- Ki [3]: 11.3 nM
- Ki [4]: 21.5 nM
- Selectivity ratio [5]: 0.5

Compound: CCCCCCC(C)(C)c1cc(OC)cc(OCCCCCCCC(=O)NCC(F)(F)F)c1
- Ki [3]: 53.5 nM
- Ki [4]: 92.8 nM
- Selectivity ratio [5]: 0.6

Compound: CCCCCCC(C)(C)c1cc(OC)cc(OCCCCCCCC(=O)NCCO)c1
- Ki [3]: 89.1 nM
- Ki [4]: 129 nM
- Selectivity ratio [5]: 0.7

Compound: CCCCCc1cc(OC)cc(OCCCCCCCC(=O)NCCO)c1
- Ki [3]: 76.1 nM
- Ki [4]: 41.9 nM
- Selectivity ratio [5]: 1.8

Compound: C=CCNC(=O)CCCCCCCOc1cc(OC)cc(C(C)(C)CCCCCC)c1
- Ki [3]: 7.6 nM
- Ki [4]: 31.2 nM
- Selectivity ratio [5]: 0.2

Compound: CCCCCCC(C)(C)c1cc(OC)cc(OCCCCCCCCCCC(=O)NC(CO)CO)c1
- Ki [3]: > 10000 nM
- Ki [4]: 1370 nM
- Selectivity ratio [5]: > 7.3

Compound: CCCCCCc1ccc(OCCCCCCCCCCC(=O)NCC2CC2)cc1OC
- Ki [3]: 3250 nM
- Ki [4]: 48.8 nM
- Selectivity ratio [5]: 66.6
- Activity [19]: Active
- EC50 [8]: 174 nM
- Kb [20]: 30.6 nM
- Emax [14]: -18.3%

Compound: CCCCCCC(C)(C)c1cc(OC)cc(OCCCCCCCCCCC(=O)NCCO)c1
- Ki [3]: 3160 nM
- Ki [4]: 104 nM
- Selectivity ratio [5]: 30

Compound: CCCCCc1cccc(OCCCCCCCCCCC(=O)NC2CC2)c1
- Ki [3]: 5.9 nM
- Ki [4]: 3.5 nM
- Selectivity ratio [5]: 1.7
- EC50 [6]: 31 nM
- Emax [7]: 29.5%
- EC50 [8]: 1.28 nM
- Kb [20]: 78.2 nM
- Emax [14]: -13%

Compound: CCCCCCc1ccc(OC)cc1OCCCCCCCCCCC(=O)NCC1CC1
- Ki [3]: 693 nM
- Ki [4]: 62.6 nM
- Selectivity ratio [5]: 11.1

Compound: CCCCCCC(C)(C)c1cc(OC)cc(OCCCCCCCCCCC(=O)NCC2CC2)c1
- Ki [3]: 3190 nM
- Ki [4]: 322 nM
- Selectivity ratio [5]: 9.9

Compound: CCCCCc1cc(OC)cc(OCCCCCCCCCCC(=O)NCC(F)(F)F)c1
- Ki [3]: 75.5 nM
- Ki [4]: 22.9 nM
- Selectivity ratio [5]: 3.3

Compound: C=CCNC(=O)CCCCCCCCCCOc1cc(CCCCC)cc(OC)c1
- Ki [3]: 23.7 nM
- Ki [4]: 6.8 nM
- Selectivity ratio [5]: 3.5

Compound: CCCCCc1cc(OCC)cc(OCCCCCCCCCCC(=O)NC2CC2)c1
- Ki [3]: 11.7 nM
- Ki [4]: 6.7 nM
- Selectivity ratio [5]: 1.8

Compound: CCCCCc1cc(OC)cc(OCCCCCCCCCCC(=O)NC2CC2)c1
- Ki [3]: 3.5 nM
- Ki [4]: 1.2 nM
- Selectivity ratio [5]: 2.9
- EC50 [6]: 6.21 nM
- Emax [7]: 62.7%
- Activity [19]: Active
- EC50 [8]: 398 nM
- Emax [21]: -17.8%
- Kb [20]: 37.8 nM
- Activity [22]: Active
- Activity [23]: inactive
- Activity [15]: inactive
- Activity [16]: inactive

Compound: CCCCCc1cc(OC)cc(OCCCCCCCCCCC(=O)Nc2ccccc2)c1
- Ki [3]: 845 nM
- Ki [4]: 309 nM
- Selectivity ratio [5]: 2.7

Compound: CCCCCc1cc(OCCCCCCCCCCC(=O)NC2CC2)cc(OC(C)C)c1
- Ki [3]: 20.7 nM
- Ki [4]: 2.7 nM
- Selectivity ratio [5]: 7.7

Compound: CCCCCCC(C)(C)c1cc(OC)cc(OCCCCCCCCCCC(=O)NC2CC2)c1
- Ki [3]: 280 nM
- Ki [4]: 26.1 nM
- Selectivity ratio [5]: 10.7

Compound: CCCCCc1cc(OC)cc(OCCCCCCCCCCC(=O)NCC2CC2)c1
- Ki [3]: 297 nM
- Ki [4]: 10.3 nM
- Selectivity ratio [5]: 28.9

Compound: CCCCCc1cc(O)cc(OCCCCCCCCCCC(=O)NC2CC2)c1
- Selectivity ratio [5]: 0.4

Compound: C=CCOc1cc(CCCCC)cc(OCCCCCCCCCCC(=O)NC2CC2)c1
- Ki [3]: 13.6 nM
- Ki [4]: 4.7 nM
- Selectivity ratio [5]: 2.9

Compound: CCCCCc1cc(OC)cc(OCCCCCCCCCCC(=O)NCCO)c1
- Ki [3]: 87.6 nM
- Ki [4]: 33.2 nM
- Selectivity ratio [5]: 2.6

Compound: CCCCCc1cc(OC)cc(OCCCCCCCCCCC(=O)NC(CO)CO)c1
- Ki [3]: 350 nM
- Ki [4]: 598 nM
- Selectivity ratio [5]: 0.6
